One data set concerns MDA-MB-231 xenografts. The data set can be described thus: Nude mouse MDA-MB-231 tumor efficacy study. It is filed as in vivo, athymic nude mice. The note with it: tail vein day 1 and 2. As for the experimental part:
Charles River Labs athymic nude mice were subcutaneous injected with 5×10^6 human tumor cells in matrigel. The tumor volume was monitored until an average tumor size of ˜150 mm^3 was obtained in the mouse population The mice were then randomized in to one of the nine treatment groups (summarized in table below) with a population of 10 mice per group (n=10). Each of the formulations were dosed at 100 μL fixed volume via tail vein injection on day 1 and day 2 of the study. Mice were weighed and the tumor volume measured every 3-4 days for 3 weeks of the study duration.

In another data set the test system is MB-231 (HBC). The data set is described as follows: MTS cell assay, MB-231. To be noted: Homo sapiens, 72 hours. It is filed as cell-based, Human. As for the experimental part: Charles River Labs athymic nude mice bearing MDA-MB-231 breast carcinoma cell line subcutaneous xenografts (5×10^6 cells in matrigel) were sacrificed to make a tumor isolate. Using sterile instruments and working aseptically, the tumors were removed from the euthanized animal. The tumor was placed in a 50 mL sterile conical tube and 5 mL of trypsin was added. The tumor was cut into small pieces and incubated at 37° C. for 30 minutes. After incubation, a cell strainer was placed on a second, sterile, 50 mL conical tube and the contents of the first tube were placed in the cell strainer. The tissue was forced through the filter using the flat end of a syringe plunger. The cell strainer was washed with 5 mLs of media containing FBS. The cells were spun down and the supernatant was discarded. The cells were resuspended in 20 mLs of complete media containing P/S and placed in a 75 cm flask.
(§1) Human carcinoma cells (2,000 cells/well) were incubated with the desired concentration of the test molecule (0-200 μM) for 72 hours. The cells were then incubated with MTS solution (Promega) for 1-2 hours, and the compounds effects on cell proliferation was determined by measuring the absorbance at 490 nm. Cell growth was expressed as a percent of the appropriate control (placebo). […] All data reported was the mean±SE of three independent experiments.

Data set [1] is described as follows: CD-1 mice plasma pharmacokinetics, bendamustine C14 ester albumin nanoparticle i.v. It is filed as in vivo. The note with it: mouse, iv; for Vd: Mean n = 3; for AUC(0-t): Mean n = 3, read-out: AUC0-6 of C14 Ester in plasma; for AUC(0-inf): Mean n = 3, read-out: AUC0-∞ of C14 Ester in plasma; for clearance: Mean n = 3, read-out: CL of C14 Ester; for half-life: Mean n = 3, read-out: t1/2 of C14 Ester in plasma (converted). The procedure:
Another embodiment of the invention, bendamustine C14 ester was formulated into a nanoparticle intraveneous formulation according to the methods described above and administered to CD-1 mice. The amount of bendamustine (BM1) and bendamustine C14 ester was determined in the mice plasma.

Data set [2] in a line: Tumor and plasma levels, MDA-MB-231 tumor efficacy PK group. The note with it: athymic nude, mouse, in vivo. The procedure: (§2) A portion of the tumor bearing mice were dosed as a satellite PK group. Each group was dosed as described for the tumor efficacy group, however the PK group was euthanized and tissue samples collected at 1, 3 and 6 hours post dosing on day 2. The tissues collected included blood, lung, liver and tumor. Samples were analyzed for bendamustine HCl and the corresponding ester analogue as described in the LC-MS protocol section.
(§3) Plasma and other tissues were prepared for high performance liquid chromatography (HPLC)/mass spectrometric analysis according to a standard protocol following protein precipitation with acetonitrile containing an internal standard. The samples were then analyzed for both bendamustine HCl and bendamustine esters of the invention and alprenolol (internal standard) via HPLC coupled with tandem mass spectrometry. Tissue samples were homogenized in sodium phosphate buffer and the value obtained from the assay was multiplied by 3 to correct for dilution during processing.

The subject of another data set is H-460 (NSCLC). The data set is described as follows: MTS cell assay, H-460. To be noted: Homo sapiens, NCI-H460, 72 hours. It is filed as cell-based, Human. As for the experimental part:
as §1
A general note: Tetrazolium assays rely on reduction of a dye to a coloured formazan, in cell work by metabolically active cells.

Data set [3] has as its system H460 tumor cells (large cell lung cancer). The data set can be described thus: Nude mouse H460 tumor efficacy study. It is filed as in vivo, nu/nu mouse. The note with it: tail vein. As for the experimental part:
2×10^6 cells/100 ul in the mix of medium and Matrigel (1:1 ratio) solution was injected into right back flank of each nu/nu mouse. The implanted mice were monitored and measured with electric calipers. The study started when the tumors reached ˜150 mm^3 in size. The mice were measured and randomized into 9 groups with 10 mice in each group per the below table: […]

The nature of data set [4]: Tumor and plasma levels, H460 tumor efficacy PK group. To be noted: nu/nu, mouse, in vivo. As for the experimental part:
The formulations were administrated as 100 μL dose volume through tail vein injection within 30 minutes after compounds were formulated. All the mice were weighed and tumors measured twice weekly. At the last day of the study, plasma, tumor, lung, liver, spleen, left kidney, brain and legs were collected and quickly frozen for further analysis two hours post-dosing.
as §2, §3

The conditions of data set [5]: reported; cited from earlier work.
In data set [6] the test system is RPMI 8226 (Human Plasmacytoma, Myeloma B Cells). The procedure: Cells (originated from ATCC) were cultured on RPMI medium. Cell suspension was centrifuged and resuspended in 50% Matrigel/HBSS to a final concentration of 7×10^7 cells/ml. The suspension was implanted s.c. in the right flank of the anesthetized mouse at a volume of 100 μl.
Seven ml saline were added to the original vial containing 3.5 mg powder resulting in 0.5 mg/ml. Three ml of this solution were added to 27 ml saline to receive 0.05 mg/ml concentration.
bendamustine preparation: 13.5 mg was dissolved in 3.6 ml of 1:1 mixture of 0.9% saline/5% mannitol just before the treatment. 1.05 ml of this solution was added to 0.95 ml diluent for 2 mg/ml solution.
1.05 ml of this solution was added to 0.95 ml diluent for 2 mg/ml solution.
On day 21, mice were sorted by the optimal average tumor volume (˜150 mm^3) and were allocated into eight groups of 9 mice each.
[formula] The analysis of weight gain and tumor volume progression was made using one-way ANOVA followed by Tukey post-hoc comparisons. Results

Where [7] appears, read: 80 mg/kg, Ester level in plasma at 1 hour, HSA nanoparticle.
[8] abbreviates: 80 mg/kg, Ester level in plasma at 1 hour, Solution.
The mark [9] stands for this setting: 80 mg/kg, Ester level in tumor at 1 hour, HSA nanoparticle.
Where [10] appears, read: 80 mg/kg, Ester level in tumor at 1 hour, Solution.
Where [11] appears, read: HSA nanoparticle, 80 mg/kg Free Base Eq.
The mark [12] stands for this setting: Solution, 80 mg/kg Free Base Eq.
Where [13] appears, read: Solution (TREANDA), 37.5 mg/kg Free Base Eq.
The mark [14] stands for this setting: 20 mg/kg iv on days 1 and 2, day 46.
The mark [15] stands for this setting: 37.5 mg/kg iv on days 1 and 2, day 46.

Each structure is given as a SMILES string. Read-outs that look alike come from different tables or passages of the source. Marks after values point to notes of the source that are not given here.

For `CCCCCCCCCCCCCCOC(=O)CCCc1nc2cc(N(CCCl)CCCl)ccc2n1C` [Bendamustine C14 Ester, 4-{5-[Bis-(chloroethyl)-amino]-1-methyl-1H-benzimidazol-2-yl}butyric acid tetradecyl ester], the “% Morbidity” value was 60% with MDA-MB-231 xenografts (HSA nanoparticle, 80 mg/kg); 40% in the data set on MDA-MB-231 xenografts (Solution, 80 mg/kg); 10% in [3] (setting [11]); 100% in data set [3] (setting [12]). For the same compound, the “% Mortality” value is reported as 0% in the data set with MDA-MB-231 xenografts (HSA nanoparticle, 80 mg/kg); 0% in the data set with MDA-MB-231 xenografts (Solution, 80 mg/kg); 0% in data set [3] (setting [11]); 40% in data set [3] (setting [12]). Moreover, the “% Tumor Inh.” value is on record as 86.5% in the data set on MDA-MB-231 xenografts (HSA nanoparticle, 80 mg/kg); 90% in the data set with MDA-MB-231 xenografts (Solution, 80 mg/kg); 40% in [3] (setting [11]); 81% in data set [3] (setting [12]). Besides, the IC50 (commonly the midpoint of a concentration-inhibition curve) was above 200 µM with MB-231 (HBC) and 130 µM in the data set with H-460 (NSCLC). Also, the Vd (commonly a proportionality between amount in the body and measured concentration, not a real space) was 3.2 L/kg in data set [1] (30 mg/kg, 30 mg-eq/kg); 2.5 L/kg in data set [1] (55 mg/kg, 55 mg-eq/kg); 5.2 L/kg in data set [1] (80 mg/kg, 80 mg-eq/kg). Moreover, the AUC(0-t) in data set [1] (30 mg/kg, 30 mg-eq/kg) came to 31700 ng·h/mL; in data set [1] (55 mg/kg, 55 mg-eq/kg), 48900 ng·h/mL; in [1] (80 mg/kg, 80 mg-eq/kg), 46300 ng·h/mL. In addition, the AUC(0-inf) in data set [1] (30 mg/kg, 30 mg-eq/kg) is 31700 ng·h/mL; in data set [1] (55 mg/kg, 55 mg-eq/kg), 49000 ng·h/mL; in data set [1] (80 mg/kg, 80 mg-eq/kg), 46500 ng·h/mL. The clearance was 24 mL/min/kg in data set [1] (30 mg/kg, 30 mg-eq/kg); 29 mL/min/kg in data set [1] (55 mg/kg, 55 mg-eq/kg); 56 mL/min/kg in data set [1] (80 mg/kg, 80 mg-eq/kg). The half-life in data set [1] (30 mg/kg, 30 mg-eq/kg) is 1.52 h; in data set [1] (55 mg/kg, 55 mg-eq/kg), 0.98 h; in data set [1] (80 mg/kg, 80 mg-eq/kg), 1.09 h. The concentration at 1 h in [2] (setting [7]) is 5730 ng/mL; in [2] (setting [8]), 14 ng/mL; in data set [2] (setting [9]), 10400 ng/mL; in data set [2] (setting [10]), 396 ng/mL; in data set [4] (setting [7]) it was 3650 ng/mL; in data set [4] (setting [8]), 32200 ng/mL. Also, the concentration at 1 h amounted to 4570 ng/mL in data set [4] (setting [9]) and 8570 ng/mL in data set [4] (setting [10]).
Regarding `Cn1c(CCCC(=O)O)nc2cc(N(CCCl)CCCl)ccc21` [Bendamustine, 4-[5-[bis(2-chloroethyl)amino]-1-methylbenzimidazol-2-yl]butanoic acid], the “% Morbidity” value in the data set with MDA-MB-231 xenografts (Solution, 37.5 mg/kg) is 10%; in data set [3] (setting [13]), 0/0%. Moreover, the “% Mortality” value is 0% in the data set on MDA-MB-231 xenografts (Solution, 37.5 mg/kg) and 0/0% in [3] (setting [13]). Moreover, the “% Tumor Inh.” value in the data set with MDA-MB-231 xenografts (Solution, 37.5 mg/kg) was found to be 77%; in data set [3] (setting [13]) it was 41.5%. For the same compound, the IC50 was in the range of 13 to 16 µM in the data set with MB-231 (HBC) and 4 to 26 µM with H-460 (NSCLC). The concentration at 1 h came out at 906 ng/mL in [2] (37.5 mg/kg, BM1 level in plasma at 1 hour, Solution); 558 ng/mL in data set [2] (37.5 mg/kg, BM1 level in tumor at 1 hour, Solution); 1550 ng/mL in data set [4] (37.5 mg/kg, BM1 level in plasma at 1 hour, Solution (TREANDA)); 1470 ng/mL in [4] (37.5 mg/kg, BM1 level in tumor at 1 hour, Solution (TREANDA)). Besides, in [5], the half-life in vivo was 6 to 10 min. Besides, the “Max BW (mean) reduction” value in data set [6] (20 mg/kg iv on days 1 and 2) was −2.7%; in data set [6] (37.5 mg/kg iv on days 1 and 2) it was −6.2%. Besides, the “No. of TRD” value in data set [6] (20 mg/kg iv on days 1 and 2) came to 0; in data set [6] (37.5 mg/kg iv on days 1 and 2), 0. The “No. og nTRD” value in data set [6] (20 mg/kg iv on days 1 and 2) is given as 0; in data set [6] (37.5 mg/kg iv on days 1 and 2), 0. The “% TGI” value in data set [6] (setting [14]) is recorded as 66*** %; in data set [6] (setting [15]) it was 81%. Moreover, the “No. of CR” value in data set [6] (setting [14]) and in [6] (setting [15]) was 0 throughout. The “No. of PR” value in data set [6] (setting [14]) and in [6] (setting [15]) was 0 in each case. In addition, the results for the “mean tumor volume, (mean ± se)” value in data set [6] (setting [14]) and in data set [6] (setting [15]) were 205 ± 44 and 113 ± 23, respectively.
Take `COC(=O)CCCc1nc2cc(N(CCCl)CCCl)ccc2n1C` [—CH3, 4-{5-[Bis-(2-chloro-ethyl)-amino]-1-methyl-1H-benzoimidazol-2-yl}-butyric acid methyl ester]: the melting point (usually the temperature, or range, at which the solid turns liquid) is 60 to 63 °C (dec.). For the same compound, the IC50 in the data set with MB-231 (HBC) was found to be 66 µM. In the data set on H-460 (NSCLC), this compound registered an IC50 of 1.2 µM.
